# Experimental data published in patent publication US20240010639A1, “TRIAZINE DIONE DERIVATIVE, PREPARATION METHOD THEREFOR AND APPLICATION THEREOF IN MEDICINE” (Jiangsu Hengrui Pharmaceuticals Co., Ltd., priority 2020, published 2024).
# Like-named read-outs stand apart in the source and are kept apart here.
# Assays:
# [1] = Pharmacokinetic evaluation in beagles; type: in vivo; conditions: for AUC: read-out: Area under curve AUC; for half-life: read-out: Half-life T1/2 (converted); for Cmax: read-out: Plasma concentration Cmax; for MRT: read-out: Residence time MRT
# Protocol: With beagles as test animals, the plasma concentrations of the test compounds were measured by LC/MS/MS at different time points after intragastric administration and intravenous injection. The pharmacokinetic performance of the compound disclosed herein was studied in beagles and its pharmacokinetic profile was evaluated.
# Pharmacokinetics of the compound of Example 16 in beagles: 8 beagles, an equal number of males and females, divided into 2 groups of 4, provided by Shanghai Medicilon Inc. Pharmacokinetics of compound MYK-461 in beagles: 6 beagles, male, divided into 2 groups of 3, provided by Shanghai Medicilon Inc.
# A certain amount of the compound of Example 16 was measured out, and 5% DMSO, 30% PG, 30% PEG400 and 35% normal saline were added to prepare a clear solution.
# A certain amount of compound MYK-461 was measured out, and 5% DMSO, 20% PG, 20% PEG400 and 55% normal saline were added to prepare a clear solution.
# Beagles were fasted overnight and then given compounds by intragastric administration and intravenous injection at doses of 2 mg/kg and 0.5 mg/kg, respectively, and at volumes of 5 mL/kg and 2 mL/kg, respectively.
# 1.0-mL blood samples were collected from the jugular veins or forelimb veins of the animals in the intragastric administration group before administration and 0.25 h, 0.5 h, 1.0 h, 2.0 h, 4.0 h, 6.0 h, 8.0 h, 12.0 h and 24.0 h after administration, placed into EDTA-K2 anticoagulant tubes, and centrifuged at 10,000 rpm for 5 min (4° C.), and plasma was isolated within 1 h and stored at −80° C. before analysis. The blood collection to centrifugation process was performed under ice bath conditions. Three hours after administration, feeding was resumed.
# Blood samples were collected from the animals in the intravenous injection group before administration and 5 min, 0.25 h, 0.5 h, 1.0 h, 2.0 h, 4.0 h, 8.0 h, 12.0 h and 24.0 h after administration and processed as in the intragastric administration group.
# Determination of plasma concentrations in beagles after intragastric administration and intravenous injection of different concentrations of test compounds: 30 μL of beagle plasma at each time point post-dose was mixed with an internal standard solution (internal standard for the compound of Example 16: 100 ng/mL warfarin; internal standard for compound MYK-461: 100 ng/mL tolbutamide) and 300 μL of methanol; the mixture was vortexed for 1 min and centrifuged at 18,000 g for 7 min, and 200 μL of the supernatant was transferred to a 96-well plate; 1 μL of the supernatant was taken for LC/MS/MS analysis.
# [2] = Toxicokinetic evaluation of 14-day repeated intragastric administration to SD rats; type: in vivo
# Protocol: With SD rats as test animals, the plasma concentrations of the test compounds and the concentrations of the original forms of the compounds in the administration solutions were measured by LC/MS/MS at different time points after intragastric administration. The toxicokinetic performance of the compound disclosed herein was studied in SD rats and its toxicokinetic profile was evaluated.
# 24 SD rats, an equal number of males and females, evenly divided into 6 groups of 4, an equal number of males and females in each group, provided by Vital River Laboratory Animal Technology Co., Ltd.
# A certain amount of the compound of Example 16 was measured out, and 15% PEG400 and 85% (10% TPGS+1% HPMC K100LV) were added to prepare a pale yellow homogenous suspension.
# A certain amount of compound MYK-461 was measured out, and 0.5% MC was added to prepare a colorless clear solution.
# The compound of Example 16 was intragastrically administered at doses of 5 mg/kg, 15 mg/kg and 30 mg/kg, at a volume of 10 mL/kg.
# Compound MYK-461 was administered at doses of 0.5 mg/kg, 1.5 mg/kg and 3 mg/kg, at a volume of 10 mL/kg.
# 0.2-mL blood samples were collected from the orbit 0.5 h, 1.0 h, 2.0 h, 4.0 h, 8.0 h and 24.0 h after administration on day 1, and before administration and 0.5 h, 1.0 h, 2.0 h, 4.0 h, 8.0 hi, 24.0 h after administration on day 7 and day 14, placed into EDTA-K2 anticoagulation tubes, and centrifuged at 10,000 rpm for 1 min (4° C.), and plasma was isolated within 1 h and stored at −20° C. before analysis. The blood collection to centrifugation process was performed under ice bath conditions. Two hours after administration, feeding was resumed.
# Determination of plasma concentrations in SD rats after intragastric administration of different concentrations of test compounds: 20 μL of SD rat plasma at each time point post-dose was mixed with 50 μL of an internal standard solution (internal standard for the compound of Example 16: 100 ng/mL verapamil; internal standard for compound MYK-461: 100 ng(mL camptothecin) and 200 μL of acetonitrile; the mixture was vortexed for 5 min and centrifuged at 3700 rpm for 10 min, and 1 μL of the supernatant was taken for LC/MS/MS analysis.
# [3] = both (Example 16), male (MYK-461), beagle, dog, plasma, intravenous injection, 0.5 mg/kg
# [4] = both (Example 16), male (MYK-461), beagle, dog, plasma, po, intragastric administration, 2 mg/kg
# [5] = intravenous injection, 0.5 mg/kg
smiles,measurement,setting,value
"Cc1ccc(F)c([C@H](C)Nc2nc(=O)n(C3CCOCC3)c(=O)[nH]2)c1 [Example 16, (S)-6-((1-(2-Fluoro-5-methylphenyl)ethyl)amino)-3-(tetrahydro-2H-pyran-4-yl)-1,3,5-triazine-2,4(1H,3H)-dione]",T1/2 comparison (in words),[1],significantly shorter T1/2
same,absorption profile (in words),[1],good absorption profile
same,AUC,[1]; [3],716 ng·h/mL
same,half-life,[1]; [3],5.6 h
same,Cmax,[1]; [3],1080 ng/mL
same,MRT,[1]; [3],7.5 h
same,Vd/F,"[1]; both (Example 16), male (MYK-461), beagle, dog, plasma, po, intragastric administration, 2 mg/kg, read-out: Apparent volume of distribution Vz/F",6.05 L/kg
same,AUC,[1]; [4],3100 ng·h/mL
same,CL/F,"[1]; both (Example 16), male (MYK-461), beagle, dog, plasma, po, intragastric administration, 2 mg/kg, read-out: Clearance CL/F",9.26 mL/min/kg
same,half-life,[1]; [4],7.5 h
same,Cmax,[1]; [4],1540 ng/mL
same,MRT,[1]; [4],9.5 h
same,Apparent volume of distribution Vz/F,[1]; [5],5.022 L/kg
same,Clearance CL/F,[1]; [5],10.4 mL/min/kg
same,accumulation after 14 days of repeated intragastric administration (in words),[2],did not show significant accumulation
same,Vd/F at 1 day,"[2]; both sexes, SD, rat, plasma, po, 5 mg/kg, repeated intragastric 5 mg/kg, Day 1, read-out: Apparent volume of distribution Vz/F",1.27 L/kg
same,AUC,"[2]; both sexes, SD, rat, plasma, po, 5 mg/kg, repeated intragastric 5 mg/kg, Day 1, read-out: Area under curve AUC",30000 ng·h/mL
same,CL/F at 1 day,"[2]; both sexes, SD, rat, plasma, po, 5 mg/kg, repeated intragastric 5 mg/kg, Day 1, read-out: Clearance CL/F",3.06 mL/min/kg
same,half-life at 1 day,"[2]; both sexes, SD, rat, plasma, po, 5 mg/kg, repeated intragastric 5 mg/kg, Day 1, read-out: Half-life T1/2 (converted)",4.8 h
same,Cmax at 1 day,"[2]; both sexes, SD, rat, plasma, po, 5 mg/kg, repeated intragastric 5 mg/kg, Day 1, read-out: Plasma concentration Cmax",5740 ng/mL
same,MRT at 1 day,"[2]; both sexes, SD, rat, plasma, po, 5 mg/kg, repeated intragastric 5 mg/kg, Day 1, read-out: Residence time MRT",5 h
same,Vd/F at 7 day,"[2]; both sexes, SD, rat, plasma, po, 5 mg/kg, repeated intragastric 5 mg/kg, Day 7, read-out: Apparent volume of distribution Vz/F",1.28 L/kg
same,AUC at 7 day,"[2]; both sexes, SD, rat, plasma, po, 5 mg/kg, repeated intragastric 5 mg/kg, Day 7, read-out: Area under curve AUC",28100 ng·h/mL
same,CL/F at 7 day,"[2]; both sexes, SD, rat, plasma, po, 5 mg/kg, repeated intragastric 5 mg/kg, Day 7, read-out: Clearance CL/F",2.99 mL/min/kg
same,half-life at 7 day,"[2]; both sexes, SD, rat, plasma, po, 5 mg/kg, repeated intragastric 5 mg/kg, Day 7, read-out: Half-life T1/2 (converted)",4.9 h
same,Cmax at 7 day,"[2]; both sexes, SD, rat, plasma, po, 5 mg/kg, repeated intragastric 5 mg/kg, Day 7, read-out: Plasma concentration Cmax",4470 ng/mL
same,MRT at 7 day,"[2]; both sexes, SD, rat, plasma, po, 5 mg/kg, repeated intragastric 5 mg/kg, Day 7, read-out: Residence time MRT",6 h
same,Vd/F at 14 day,"[2]; both sexes, SD, rat, plasma, po, 5 mg/kg, repeated intragastric 5 mg/kg, Day 14, read-out: Apparent volume of distribution Vz/F",1.24 L/kg
same,AUC at 14 day,"[2]; both sexes, SD, rat, plasma, po, 5 mg/kg, repeated intragastric 5 mg/kg, Day 14, read-out: Area under curve AUC",29800 ng·h/mL
same,CL/F at 14 day,"[2]; both sexes, SD, rat, plasma, po, 5 mg/kg, repeated intragastric 5 mg/kg, Day 14, read-out: Clearance CL/F",2.8 mL/min/kg
same,half-life at 14 day,"[2]; both sexes, SD, rat, plasma, po, 5 mg/kg, repeated intragastric 5 mg/kg, Day 14, read-out: Half-life T1/2 (converted)",5.1 h
same,Cmax at 14 day,"[2]; both sexes, SD, rat, plasma, po, 5 mg/kg, repeated intragastric 5 mg/kg, Day 14, read-out: Plasma concentration Cmax",4860 ng/mL
same,MRT at 14 day,"[2]; both sexes, SD, rat, plasma, po, 5 mg/kg, repeated intragastric 5 mg/kg, Day 14, read-out: Residence time MRT",6.2 h
same,Vd/F,"[2]; both sexes, SD, rat, plasma, po, 15 mg/kg, repeated intragastric 15 mg/kg, Day 1, read-out: Apparent volume of distribution Vz/F",1.37 L/kg
